Experimental data as given in PubChem BioAssay AID816 (SRMLSC, 2007).
Activity calls are given as the source filed them. The rule behind the calls is not given here.

Test system: S. cerevisiae GAL1 promoter reporter activation counterscreen
Assay: GAL1 promoter activators in yeast, artefact control for yeast lifespan extension project, S. cerevisiae (AID 816);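 note: yeast growth read after 24 h of incubation with compounds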

Structure (SMILES) | EC50
CCn1c(/N=C/c2ccccc2NS(=O)(=O)c2ccc(C)cc2)nc2ccccc21 | > 40 µM (inactive)
CCOC(=O)c1nnn(-c2nonc2N)c1CN1CCc2ccccc2C1 | > 40 µM (inactive)
CCOc1ccccc1/C=c1\sc2ncnn2c1=O | > 40 µM (inactive)
O=C1OC2(CCCCC2)OC(=O)C1=CNc1nc2ccccc2s1 | > 40 µM (inactive)
CCOC(=O)CN1C(=O)N[C@H](c2ccc(Br)cc2)C(C(C)=O)=C1C | > 40 µM (inactive)
O=C(NCCc1ccccn1)C(F)(F)C(F)(F)C(F)(F)C(F)(F)C(F)(F)C(F)(F)C(F)(F)C(F)F | > 40 µM (inactive)
COC(=O)C1=C(C(=O)OC)C(c2cc(Br)ccc2O)c2sc(=O)[nH]c2S1 (stereo not given) | > 40 µM (inactive)
O=C(Nc1scc(-c2ccc(F)cc2)c1C(=O)O)c1ccco1 | > 40 µM (inactive)
CC(=O)Nc1nc(C)c(Oc2ccccc2)c(=O)[nH]1 | > 40 µM (inactive)
COc1ccc(CNC(=O)C2CCN(c3nc(OC)nc(OC)n3)CC2)cc1 | > 40 µM (inactive)
CC(C)C(C(=O)O)N1C(=O)/C(=C/c2cccn2C)SC1=S (stereo not given) | > 40 µM (inactive)
CCOc1ccc(N=Cc2c(O)c3ccccc3oc2=O)cc1 | > 40 µM (inactive)
COc1ccc(C(=O)On2c(-c3ccc(Br)cc3)nc3ccccc3c2=O)cc1 | > 40 µM (inactive)
O=C(CCN1CCCCCC1)Nc1ccc(F)cc1 | > 40 µM (inactive)
CC(=Nc1ccc2c(c1)nc(CO)n2C)C1=C(O)CC(C)(C)CC1=O | > 40 µM (inactive)
Cn1c(SCC(=O)N2CCCc3ccccc32)nnc1-c1c[nH]c2ccccc12 | > 40 µM (inactive)
CCOC(=O)Cc1csc(NC(=O)c2c(O)c3ccccc3n(CC(C)C)c2=O)n1 | > 40 µM (inactive)
O=C(O)c1c[nH]c(=S)n1-c1ccc(F)cc1 | > 40 µM (inactive)
CCOc1cc(Br)c(Br)c(C=Nc2ccc(NC(C)=O)cc2)c1O | > 40 µM (inactive)
Cc1cc(C)c(S(=O)(=O)c2ccccc2)c(OC(=O)c2cc(F)c(F)cc2Cl)n1 | > 40 µM (inactive)
C=CCn1c(C)cc(C(=O)CSc2nc3ccccc3c(=O)[nH]2)c1C | > 40 µM (inactive)
Cc1ccnc(SCc2cc(=O)c(OC(=O)c3ccco3)co2)n1 | > 40 µM (inactive)
Cn1c(=O)c(=O)n(C)c2cc(S(=O)(=O)N3CCN(Cc4ccccc4)CC3)ccc21 | > 40 µM (inactive)
COC(=O)C1=C(C(=O)OC)SC(=C2C(=S)C(C)(C)N(C(=O)C(C)C)c3ccccc32)S1 | > 40 µM (inactive)
CCOC(=O)c1ccc2c(c1)n(CCO)c(C)[n+]2CC | > 40 µM (inactive)

Structure (SMILES) | EC50
O=C1c2ccccc2C(=O)N1OCc1ccccc1 | > 40 µM (inactive)
CCOC(=O)C1=C(C)Nc2nc(=S)[nH]n2C1c1ccc(Cl)cc1 (stereo not given) | > 40 µM (inactive)
CN1CCN(CC(=O)Nc2ccc(Cl)cc2Cl)CC1 | > 40 µM (inactive)
CCOC(=O)C1=C(N)OC2=C(C(=O)CCC2)C1c1sccc1C (stereo not given) | > 40 µM (inactive)
Cc1ccc(S(=O)(=O)Nc2ccccc2/C=N/c2nc3ccccc3n2C(C)C)cc1 | > 40 µM (inactive)
CC[n+]1ccc(C[n+]2ccccc2)c2ccccc21 | > 40 µM (inactive)
O=C(CS(=O)c1ccc(C(F)(F)F)cc1[N+](=O)[O-])Oc1ccccc1 (stereo not given) | > 40 µM (inactive)
O=C(CCl)N1c2ccccc2OCC1c1ccccc1 (stereo not given) | > 40 µM (inactive)
COC(=O)CC1=NN(c2ccccc2)C(=O)/C1=C\c1ccc(OC)cc1 | > 40 µM (inactive)
CC(C)Cn1c(=O)c(C(=O)Nc2cnccn2)c(O)c2ccccc21 | > 40 µM (inactive)
COCCN(CCOC)S(=O)(=O)c1ccc(C(=O)Nc2sc3c(c2C(N)=O)CCCCC3)cc1 | > 40 µM (inactive)
N#Cc1ccc(-c2ccc(OCC(=O)NCCc3ccccc3)cc2)cc1 | > 40 µM (inactive)
C=CCN(CC=C)c1nc2ccccc2nc1C(C#N)C(=O)OC(C)C (stereo not given) | > 40 µM (inactive)
Cc1[nH]n(-c2ccccc2)c(=O)c1N=Nc1nccs1 | > 40 µM (inactive)
CNC(=S)NC1CC2CCCC(C1)N2Cc1ccco1 (stereo not given) | > 40 µM (inactive)
O=C(Cn1nc(Cl)nc1Cl)c1cc2ccccc2oc1=O | > 40 µM (inactive)
COc1cc(/C=C/C(=O)C2C(=O)C=C(C)OC2=O)cc(OC)c1O (stereo not given) | > 40 µM (inactive)
COc1ccc(/C=C/C(=O)C2C(=O)C=C(C)OC2=O)cc1O (stereo not given) | > 40 µM (inactive)
CCCCCCC1C(C#N)=C(N)OC2=C1C(=O)CC(C)(C)C2 (stereo not given) | > 40 µM (inactive)
O=C(c1ccc(F)cc1)C(CN1CCOCC1)c1ccccc1 (stereo not given) | > 40 µM (inactive)
CC(C)=C1C(=O)NN(c2ccc(C)c(Cl)c2)C1=O | > 40 µM (inactive)
COC(=O)/C(=C/c1cn(C)c2ccccc12)[N+](=O)[O-] | > 40 µM (inactive)
CCSc1nnc(NC(=O)C2(C)Cc3ccccc3C(=O)O2)s1 (stereo not given) | > 40 µM (inactive)
CCCn1c(C)cc(C(=O)COc2ncnc3sccc23)c1C | > 40 µM (inactive)
CC(=O)Nc1c(O)nc(SCc2ccccc2C#N)[nH]c1=O | > 40 µM (inactive)

Structure (SMILES) | EC50
CCOC(=O)/C(=C/c1ccc(OC(=O)c2ccccc2)cc1)C(C)=O | > 40 µM (inactive)
CCOC(=O)C1CCN(C(c2cc3ccc(C)c(C)c3[nH]c2=O)c2nnnn2C2CCCCC2)CC1 (stereo not given) | > 40 µM (inactive)
Cc1ccc(CNc2nc3ccccc3s2)s1 | > 40 µM (inactive)
CCCCN(CCCC)c1ccc(C(=O)c2ccccc2C(=O)O)c(O)c1 | > 40 µM (inactive)
O=C1C=CCC(/C=C/c2ccccc2)O1 (stereo not given) | > 40 µM (inactive)
COc1ccc(C2CC23N=C(c2ccccc2)OC3=O)cc1 (stereo not given) | > 40 µM (inactive)
CCCCn1c(=O)c(C(=O)Nc2cnccn2)c(O)c2ccccc21 | > 40 µM (inactive)
C/C(=N\NC(=O)c1ccccc1O)C1C(=O)c2ccccc2C1=O | > 40 µM (inactive)
CCN(CCO)C(=O)C12CCC(C)(C(=O)C1)C2(C)C (stereo not given) | > 40 µM (inactive)
Cc1ccc(C(=O)OC2=CC(=O)CC(C)(C)C2)cc1 | > 40 µM (inactive)
CC(C)CN=C(NS(=O)(=O)c1ccccc1)C(Cl)(Cl)Cl | > 40 µM (inactive)
O=C(O)CCCCCN1C(=O)/C(=C\c2ccncc2)SC1=S | > 40 µM (inactive)
CC(C)(C)C(=O)Cn1c(=N)n(Cc2ccccc2)c2ccccc21 | > 40 µM (inactive)
Cc1oc2c(c(=O)c1C)C(=O)CC(c1ccccc1)C2 (stereo not given) | > 40 µM (inactive)
CCCCCCCCn1c(=O)c(C(=O)OCC)c(O)c2ccccc21 | > 40 µM (inactive)
O=C1CC(c2ccc(F)cc2)CC(O)=C1C=NCCN1CCN(C(=O)Nc2ccccc2)CC1 (stereo not given) | > 40 µM (inactive)
CCCCCSc1nc2c(c(=O)[nH]c(=O)n2C)n1C | > 40 µM (inactive)
O=C1/C(=C\c2cccnc2)CN(Cc2ccccc2)C/C1=C\c1cccnc1 | > 40 µM (inactive)
COc1ccc(-c2cc(C(F)(F)F)nc(S(C)(=O)=O)n2)cc1 | > 40 µM (inactive)
CCOC(=O)C(=Cc1ccc(F)cc1)C(=O)OCC | > 40 µM (inactive)
CCSc1nnc(NC(=O)CSc2nc(C)cc(C)n2)s1 | > 40 µM (inactive)
O=c1c2ccccc2nc(-c2ccc(Cl)c(Cl)c2)n1O | > 40 µM (inactive)
COc1ccccc1CN(Cc1nc2ccccc2c(=O)[nH]1)C(=O)Nc1cccc(C)c1 | > 40 µM (inactive)
CCOC(=O)C1Cc2cc3c(cc2C1=O)CC(C(=O)OCC)C3=O (stereo not given) | > 40 µM (inactive)
CCCc1cc(=O)oc2cc(C)c(CN3CCCC3)c(O)c12 | > 40 µM (inactive)

Structure (SMILES) | EC50
CCOC(=O)c1c(NC(=O)C2C3C=CC(C3)C2C(=O)O)sc2c1CCC(CC)C2 (stereo not given) | > 40 µM (inactive)
COc1ccc(C(=O)C(CN2CCOCC2)c2ccccc2)cc1F (stereo not given) | > 40 µM (inactive)
CC1CCc2cc(F)cc3c(O)c(C(=O)NCc4ccco4)c(=O)n1c23 (stereo not given) | > 40 µM (inactive)
O=C1c2ccccc2-c2onc3c(Oc4ccccc4)cc(O)c1c23 | > 40 µM (inactive)
CCOC(=O)c1c(C)oc2c1c(C(c1cccnc1)N1CCOCC1)c(O)c1ccccc12 (stereo not given) | > 40 µM (inactive)
CC(C)Cc1nn2c(=O)cc(O)nc2s1 | > 40 µM (inactive)
CN(C)/C=C(/C(=O)c1ccc(Cl)cc1Cl)S(=O)(=O)c1ccccc1 | > 40 µM (inactive)
COc1cccc(C(=O)Oc2cc(N)n(S(=O)(=O)c3ccc(C)cc3)n2)c1OC | > 40 µM (inactive)
CCc1ccc2c(c1)CCCN2C(=O)c1ccccc1C(=O)O | > 40 µM (inactive)
C=C1C(=O)C=C2CN(C(=O)c3ccccc3)[C@@](Cc3ccc(F)cc3)(C(=O)OC)[C@@H]12 | > 40 µM (inactive)
COc1ccc(CN2C(=O)/C(=C/c3ccncc3)SC2=S)cc1 | > 40 µM (inactive)
Cc1ccc2[nH]c(=O)c(CN(CCO)Cc3nnnn3CCc3ccccc3)cc2c1 | > 40 µM (inactive)
CCn1c(=O)c2ccccc2n2c(SCC(=O)N3CCCc4ccccc43)nnc12 | > 40 µM (inactive)
COC(=O)c1cc(OC)c(OC)cc1NC(=S)Nc1cccc(C(C)=O)c1 | > 40 µM (inactive)
O=C1CC(c2ccccc2)CC(O)=C1C=NCCN1CCOCC1 (stereo not given) | > 40 µM (inactive)
Cc1cccc(OC(=O)n2c(=S)oc3cc(Cl)ccc32)c1 | > 40 µM (inactive)
CC(C)C(c1nnnn1Cc1ccccc1)N1CCN(Cc2ccc3c(c2)OCO3)CC1 (stereo not given) | > 40 µM (inactive)
Cn1nnnc1SCCNCC#Cc1ccccc1 | > 40 µM (inactive)
Cc1n[nH]c(=O)n1-c1cccc(C(F)(F)F)c1 | > 40 µM (inactive)
Nn1c(-c2ccccn2)nnc1-c1ccccn1 | > 40 µM (inactive)
COc1ccc2c3c(cccc13)C(=O)N(O)C2=O | > 40 µM (inactive)
CCC(=O)N1CCN(CCN=CC2=C(O)CC(c3cccs3)CC2=O)CC1 (stereo not given) | > 40 µM (inactive)
c1ccc(-c2c(-c3ccccc3)n(Cc3ccco3)c3ncnc(NCCCn4ccnc4)c23)cc1 | > 40 µM (inactive)
CC1=NN(c2ccc(C(F)(F)F)cn2)C(=O)C1 | > 40 µM (inactive)
CCCCSc1nc(O)c(C2OC(=O)c3c2ccc(OC)c3OC)c(=O)n1C (stereo not given) | > 40 µM (inactive)
